Results taken from patent US9380788B2, “Package for plant antimicrobial treatment” (priority 2013, dated 2016).

test system: pepper plants; format: in vivo; settings: plants sprayed with oregano/sesame oil emulsion made with the emulsifier

Row | Molecule | Phytotoxicity on pepper plants
1 | CCCCCCCCCCCCOS(=O)(=O)[O-].[Na+] [SDS] | phytotoxicity
2 | CCCCCCCC/C=C\CCCCCCCC(=O)OCCOCC(OCCO)C1OCC(OCCO)C1OCCO (stereo not shown) [Tween 80] | phytotoxicity
3 | CCCCCCCCCCCCCCCCCC(=O)[O-].[Na+] [sodium stearate, Sodium Stearate] | very vital
4 | Triton X 100 [Triton X100] | phytotoxicity
